Results: patent publication US10421973B2, “Chemically inducible cucumber mosaic virus protein expression system” (THE REGENTS OF THE UNIVERSITY OF CALIFORNIA, priority 2006, dated 2019)
Several values for one entry are separate records, joined by “and”; a condition that tells them apart may be missing. Equal values may be shown once. Read-outs that look alike come from different tables or passages of the source.

Key:
[1] = test system: transgenic plant cell cultures; assay: Effect of stabilizing agents and protease inhibitors on rAAT production in transgenic plant cell cultures; type: cell-based, Nicotiana benthamiana; details: transgenic plant cell cultures; data not shown
Description: The effect of stabilizing agents (bacitracin, PVP, BSA, Pluronic F-68, and mannitol) and protease inhibitors (2-mercaptoethylamine-HCl, AEBSF, benzamidine-HCl and EDTA) on the rAAT production in transgenic plant cell cultures was also evaluated.

[2] = test system: CMViva inducible cell cultures; assay: Effect of inducer concentration on rAAT production, CMViva inducible cell cultures; type: cell-based, Nicotiana benthamiana
Description: (§1) The inducer, 17-beta-estradiol, dissolved in DMSO, was added to cultures of XVE and CMViva transgenic cell lines at a specific time after inoculation to start induction. The final concentration of DMSO was not higher than 0.3%.
(§2) For inducible systems, the correct inducer concentration and timing of application are critical to maximize recombinant protein expression. Two inducible expression systems were evaluated for rAAT protein production. The concentration of inducer (COI) required for inducing maximum rAAT production and the close-response of inducible plant cell cultures were determined. Inducer was added to the XVE and CMViva cell suspensions 10 days after inoculation (100 mL cell culture in a 250 mL Erlenmeyer flask, 140 rpm and 25° C. under ambient light) to a final concentration of 0, 0.1, 0.5, 1, 2.5, 5, 10, 25, 50 or 100 μM. Samples were harvested 8 days after induction and total and functional extracellular rAAT were determined by ELISA (FIG. 8). In the absence of inducer, rAAT was not detected in XVE or CMViva cultures. There was a dose-dependent response in rAAT expression in XVE and CMViva cell cultures with added inducer, and both inducible systems allowed regulation of rAAT expression at inducer concentrations between 0.1 and 10 μM. Above approximately 10 μM estradiol, rAAT production leveled off in both XVE and CMViva systems. The CMViva system first responded at 0.1 μM while XVE required 2.5 μM. Higher extracellular rAAT productivity was produced in CMViva at a relatively low inducer concentration (0.5 μM) compared with that in XVE system (5 μM) and CMViva produced more functional rAAT at all inducer concentrations.

[3] = test system: XVE inducible cell cultures; assay: Effect of inducer concentration on rAAT production, XVE inducible cell cultures; type: cell-based, Nicotiana benthamiana
Description: as §1
as §2, with “The CMViva system first responded at 0.1 μM while XVE required 2.5 μM. Higher extracellular rAAT productivity was produced in CMViva at a relatively low inducer concentration (0.5 μM) compared with that in XVE system (5 μM) and CMViva produced more functional rAAT at all inducer concentrations.” left out

[4] = test system: N. benthamiana cultures; assay: Effects of estradiol on N. benthamiana cultures (toxicity, growth); type: cell-based, Nicotiana benthamiana; details: at up to 100 μM
Description: as §2, with “Higher extracellular rAAT productivity was produced in CMViva at a relatively low inducer concentration (0.5 μM) compared with that in XVE system (5 μM) and CMViva produced more functional rAAT at all inducer concentrations.” left out

[5] = test system: XVE system; details: cited from earlier work
[6] = test system: viral amplicon plant cell cultures; details: cited from earlier work
[7] = test system: proteases in the cell cultured medium; assay: Effect of protease inhibitors and additives on human AAT degradation in cell-free CMViva conditioned medium; type: biochemical, Nicotiana benthamiana; details: cell-free conditioned medium; data not shown
Description: (§3) For the investigation of human AAT stability in plant cell cultures, human AAT was added to the cell-free conditioned medium to a final concentration of 2 mg/L and distributed into 6-well-plates. The cell-free conditioned medium was prepared by centrifuging and filtering (through a 0.22 μm filter) the plant cells from 7 day old CMViva cell cultures (pH 5.1). Various protease inhibitors including 2-mercaptoethylamine-HCl (aminopeptidase inhibitor), AEBSF (serine and cysteine proteases inhibitor), benzamidine-HCl (serine protease inhibitor), and EDTA (a metal ion chelator and metalloproteinase inhibitor) were added to the conditioned medium to a final concentration of 10 mM to assess their ability to retard the degradation of human AAT. In another treatment, the conditioned medium was also heated (in boiling water for 30 minutes) or the medium pH was adjusted (from original pH 5.1 to 6.4˜6.6) prior to the addition of human AAT to investigate the human AAT stability. The 6-well-plates containing human AAT in various conditioned medium (4 mL/well) were incubated on an orbital shaker at 140 rpm and 25[…] under ambient light. Samples were taken daily and stored at −80° for further ELISA, western blotting and band shift analysis.

[8] = Description: as §3
[9] = test system: N. benthamiana leaves; assay: Induction method study, total rAAT ELISA in intact or detached N. benthamiana leaves (CMViva + p19); type: in vivo, Nicotiana benthamiana
Description: (§4) Non-transgenic/wildtype N. benthamiana seedlings were grown from seed in soil-filled 10-cm pots. Seedlings were transplanted to individual 10-cm pots until plants were 10 to 15 cm in height, at which time plants were ready for infiltration. All plants were grown in a greenhouse with a 16-hour photoperiod and a temperature range of 18° C. (nighttime low) to 30° C. (daytime high). To prepare for evaluation of protein expression in detached leaves, plant leaves were cut at the petiole and stored dry in unsealed plastic bags for one hour before infiltration to simulate a situation where plants would be harvested from a field and transported to a facility for infiltration.
(§5) A. tumefaciens cells containing the appropriate plasmids were grown for 24 hours in 2 mL of Luria-Bertani (LB) broth containing appropriate selection antibiotics. Approximately 0.5 mL was then transferred to 25 mL of LB broth supplemented with 10 μL of 100 mM acetosyringone (3′, 5′-dimethoxy-4′-hydroxyacetophenone) (Aldrich Chemicals, Milwaukee, Wis.) and 0.5 ml of 1 M 2-(4-morpholino) ethanesulfonic acid (MES) buffer (pH 5.6), and grown overnight at 28° C. with shaking until the cell density (optical density, OD600) reached 1.0 absorbance units. Cells were harvested by centrifugation at 2600 g, resuspended in 10 mL of sterile de-ionized water, and the cell density was adjusted to 1.0 absorbance units. Five milliliters of the A. tumefaciens cell suspension for CMViva was mixed with 5 mL of A. tumefaciens cells containing the p35S:p19 plasmid, and then supplemented with magnesium chloride to reach a final concentration of 10 mM and acetosyringone to 150 µM, and incubated at room temperature for five hours. Bacterial suspensions were then pressure infiltrated onto the abaxial side of either intact or detached N. benthamiana leaves using a 3-mL sterile syringe without a needle at three to four points to sufficiently cover the entire leaf (approximately 1 mL of bacterial suspension per 0.5 g fresh weight of tissue). No A. tumefaciens solution was applied to plants selected as healthy control plants.
(§6) Intact plants that had been infiltrated were grown in the greenhouse for the duration of the experiment. Leaves that had been detached were stored in a humidity chamber following infiltration to maintain the health of the plant material. The humidity chamber was prepared by soaking 400 g of Perlite soil additive (E.B. Stone) in 1.5 L of de-ionized water. Excess water was decanted and the saturated Perlite was packed to form a 3-cm thick bed on the bottom of an 11.4 L rectangular Tupperware container. Plant leaves were then placed 7 cm above the Perlite bed on top of racks, and the chamber was then sealed and placed in the dark at 21° C. The humidity chamber was prepared five hours before infiltration to ensure a humid environment upon introduction of the plant leaves.
(§7) Twelve hours after infiltration, an induction solution composed of 50 μM 17-β-estradiol (Sigma Inc., St. Louis, Mo.) in 0.05% Tween 20 was applied to all infiltrated N. benthamiana leaves using either cotton tipped applicators to both sides of the leaves or a 3-mL sterile syringe without a needle pressure injected onto the abaxial side of the leaves. To evaluate the effect of multiple inducer applications, the induction solution was applied to half of the total number of infiltrated leaves in the same manner (directly after sampling) at 2-day (48±1 h) increments after the initial induction. No inducer solution was applied at any time to the healthy control plants.
(§8) Plant leaves were sampled on the infiltrated/induced areas 2 days (48±1 h) post-induction (60±1 h post-infiltration) by collecting two 7-mm diameter discs at various locations on each leaf and combining the discs to approximate an average leaf sample. Three leaves from different plants were sampled for analysis of intact plant leaves and four leaves were used for analysis of detached plant leaves. […]

[10] = test system: porcine pancreatic elastase (PPE); assay: Induction method study, functional rAAT ELISA in intact or detached N. benthamiana leaves (CMViva + p19); type: biochemical
Description: as §4, §5, §6, §7, §8

[11] = inducer added 10 days after inoculation, sampled 8 days after induction
[12] = 5 day incubation, fresh sterile KCMS medium, pH 5.8
[13] = detached leaves, single pressure injection
[14] = intact leaves, single pressure injection
[15] = intact leaves, single topical application, four days after induction

Compound: Cl.N=C(N)c1ccccc1 [benzamidine-HCl]
- effect on total and functional rAAT production [1]: no significant improvement

Compound: C[C@]12CC[C@@H]3c4ccc(O)cc4CC[C@H]3[C@@H]1CC[C@@H]2O [estradiol, 17-β-estradiol]
- inducer concentration giving higher extracellular rAAT productivity ([2]; flask cultures): 0.5 µM
- estradiol concentration at which the system first responded (detectable rAAT) [2, 11]: 0.1 µM
- lowest estradiol concentration with detectable rAAT expression ([2]; lowest concentration tested): 100 nM
- inducer concentration giving higher extracellular rAAT productivity ([3]; flask cultures): 5 µM
- estradiol concentration at which the system first responded (detectable rAAT) [3, 11]: 2.5 µM
- detrimental, toxic or growth-inhibiting effects on cultures [4]: no obvious detrimental, toxic, or growth-inhibiting effects
- estradiol concentration giving detectable GFP transcripts ([5]; plants, XVE system): 8 nM
- estradiol concentration at saturation of GFP transcripts ([5]; whole plants): around 5 μM
- estradiol concentration giving GFP fluorescence ([6]; viral amplicon plant cell cultures): 10 nM
- estradiol concentration at saturation of GFP fluorescence ([6]; viral amplicon system in plant cell culture): 0.1 to 1 µM

Compound: OC[C@@H](O)[C@@H](O)[C@H](O)[C@H](O)CO [mannitol]
- effect of medium additive on stabilizing functional human AAT [7]: did not show significant effect
- effect on total and functional rAAT production [1]: no significant improvement

Compound: human AAT: commercially available human AAT (Calbiochem) used as standard and spiked into media
- decline of total human AAT ([8]; 5 day incubation, 7 day old cell-free CMViva culture medium, pH about 5.0): 60%
- decline of functional human AAT [8, 12]: ~50%
- decline of total human AAT [8, 12]: about 25%
- decline of total human AAT ([8]; 5 day period, CMViva culture medium adjusted to pH 6.4): about 25%
- functionality of human AAT ([8]; 11 day-old cell-free CMViva medium adjusted to pH 4-5): accelerates the loss of functionality
- functionality of human AAT ([8]; 11 day-old cell-free CMViva medium adjusted to pH 7-8): maintains the functionality
- functional human AAT as % of the initial concentration ([8]; after 5 days, heated CMViva culture medium): 70%
- functional human AAT level ([8]; within 2 days, 7 day old cell-free CMViva culture medium, pH about 5.0): negligible

Compound: rAAT: recombinant α1-antitrypsin, a human blood protein, produced in N. benthamiana
- maximum total rAAT ([9]; detached leaves, multiple topical applications): 3.5±0.15 % of TSP
- total rAAT [9, 13]: 2.4±0.18 % of TSP
- maximum total rAAT ([9]; detached leaves, single topical application): 2.5±0.08 % of TSP
- maximum total rAAT ([9]; intact leaves, multiple pressure injections, 6 days after induction): 5.8±0.46 % of TSP
- increase of total rAAT, multiple compared to single treatment ([9]; intact leaves, pressure injection): 57%
- total rAAT [9, 14]: 3.7±0.31 % of TSP
- total rAAT [9, 15]: 1.4±0.17 % of TSP
- maximum total rAAT ([9]; intact leaves, single topical application, six days after induction): 1.9±0.15 % of TSP
- increase of total rAAT, multiple compared to single treatment ([9]; intact leaves, topical application): 120%
- more total rAAT, single pressure injection compared to single topical application ([9]; intact plants): 95%
- maximum total rAAT in detached leaves above that in intact leaves ([9]; single topical application): 0.6 % of TSP
- functional rAAT higher with single pressure injection than single topical application ([10]; detached leaves): 80%
- increase of maximum functional rAAT, inducer applied topically every two days ([10]; detached leaves): 1.8 fold
- maximum percentage of functional rAAT to total rAAT ([10]; detached leaves, injection method, two days after induction): 85-87%
- functional rAAT ([10]; detached leaves, multiple topical applications, four days post induction): 1.3±0.05 % of TSP
- functional rAAT [10, 13]: 1.3±0.06 % of TSP
- functional rAAT ([10]; detached leaves, single topical application, four days post induction): 0.71±0.04 % of TSP
- maximum percentage of functional rAAT to total rAAT ([10]; detached leaves, topical application, two days after induction): 55-65%
- increase of maximum functional rAAT, multiple pressure injections compared to single topical application ([10]; intact leaves): up to 3 fold
- percentage of total rAAT that is functional ([10]; intact leaves, eighth day after induction, any of the treatments): less than 15%
- maximum functional rAAT ([10]; intact leaves, multiple pressure injections): 2.4±0.09 % of TSP
- maximum functional rAAT ([10]; intact leaves, multiple topical applications): 1.6±0.08 % of TSP
- percentage of total rAAT that is functional ([10]; intact leaves, pressure injection, two days after induction): 83-90% and > 85%
- maximum functional rAAT [10, 14]: 1.8±0.09 % of TSP
- maximum functional rAAT [10, 15]: 0.80±0.04 % of TSP
- functional rAAT still present as % of the maximum level ([10]; intact leaves, six days after induction, single induction treatment): less than 40%
- more functional rAAT, single pressure injection compared to single topical application ([10]; intact plants): 125%
- functional rAAT in detached leaves less than in intact leaves ([10]; multiple topical applications, four days post induction): 0.3 % of TSP
- functional rAAT in detached leaves less than in intact leaves ([10]; single topical application, four days post induction): 0.09 % of TSP
